Experimental data as given in patent US10239836B2, “Benzenecarbothioccyclopenta[c] pyrrole-1,3-dione compounds and process for synthesis thereof” (Council of Scientific & Industrial Research, priority 2014, dated 2019).
Read-outs that look alike come from different tables or passages of the source.

How the values were obtained:
[1] = system: LPS induced NO generation in RAW 264.7 cells; assay: Inhibition of LPS induced NO generation (nitrite, Griess reagent); type: cell-based, Mouse; settings: for IC50: RAW 264.7 cells, LPS 1 μg/ml, 24 h, serum-free, read-out: NO inhibition (B) IC50; for Selectivity index (A/B): cytotoxicity IC50 / NO inhibition IC50, RAW 264.7 cells
Description: (§1) Mouse macrophage cell line RAW 264.7 was maintained in laboratory at 37° C. in
(§2) RPMI-1640 media supplemented with 10% heat-inactivated fetal bovine serum (FBS) and penicillin/streptomycin.
Nitrite, a stable oxidized product of NO, was measured in culture supernatant using Griess reagent (Sigma Aldrich) according to a previously reported method (2). After overnight seeding in 96-well plate (2×10^4 cells/well), RAW 264.7 cell was treated with lipopolysaccharide (LPS; Sigma) at a concentration of 1 μg/ml along with different doses of compounds (as determined from cytotoxicity assay) in serum-free culture for 24 h. Following treatment, media was collected and centrifuged at 2,000 rpm for 5 min to remove cellular debris. 50 μl of this media was then reacted with equal volume of Griess reagent for 15 min at room temperature in dark and absorbance was taken at 540 nm using Microplate reader (Biorad, USA). Nitrite concentrations were determined using standard solutions of sodium nitrite prepared in cell culture medium.

[2] = Cytotoxicity assay (MTT viability); type: cell-based, Mouse; settings: mouse; RAW 264.7 cells, MTT, 24 h treatment, serum free
Description: as §1, §2
(§3) Viability of cultured cells was determined by (4,5-dimethylthiazol-2-yl)-2,5-diphenyltetrazolium bromide (MTT; Sigma) as described earlier (1). RAW 264.7 was seeded in triplicate at a density of 2×10^4 cells per well on a 96-well plate. […] MTT solution (0.5 mg/ml) was then added to each well and incubate for 4 h at 37° C. At the end of the incubation period, the medium was removed and the resulting purple formazan was solubilized with acidic isopropanol (0.1 N HCl in absolute isopropanol), and the absorbance was read at 570 nm using Biorad Microplate reader (Biorad, USA).

RAW 264.7 cells = assay: Cytotoxicity assay (MTT viability); type: cell-based, Mouse
Description: as §1, §2, §3

H1N1 virus = settings: MDCK cells; Yang et al., Organic Letter 2013; cited from earlier work

## CC(=O)S[C@]12CCC[C@H]1C(=O)NC2=O (relative stereo) [Compound 18, S-((3aR*,6aS*)-1,3-Dioxohexahydrocyclopenta[c]pyrrol-3a(1H)-yl) ethanethioate]
other
  melting point: 120 to 122 °C
[1]; Mus musculus, RAW264.7
  IC50: 59.2 µM
[1]
  Selectivity index (A/B): 11.39
[2]
  IC50 at 24 h: 674 µM

## O=C(S[C@]12CCC[C@H]1C(=O)NC2=O)c1ccc(F)cc1 (relative stereo) [Compound 20, S-((3aR*,6aS*)-1,3-Dioxohexahydrocyclopenta[c]pyrrol-3a(1H)-yl) 4-fluorobenzothioate]
other
  melting point: 186 to 187 °C
[1]; Mus musculus, RAW264.7
  IC50: 390 µM
[1]
  Selectivity index (A/B): 0.9841
[2]
  IC50 at 24 h: 384 µM

## O=C(S[C@]12CCC[C@H]1C(=O)NC2=O)c1ccccc1Cl (relative stereo) [Compound 21, S-((3aR*,6aS*)-1,3-Dioxohexahydrocyclopenta[c]pyrrol-3a(1H)-yl) 2-chlorobenzothioate]
other
  melting point: 188 to 190 °C
[1]; Mus musculus, RAW264.7
  IC50: 59.8 µM
[1]
  Selectivity index (A/B): 13.95
[2]
  IC50 at 24 h: 834 µM

## CC(=O)O[C@@H]1CCC2=C1C(=O)NC2=O [(−)-5, (R)-1,3-dioxo-1,2,3,4,5,6-hexahydrocyclopenta[c]pyrrol-4-yl]
[1]
  IC50: 867 µM
RAW 264.7 cells
  IC50: 128 µM

## CC(=O)SC12CCC=C1C(=O)NC2=O (stereo not drawn) [Compound 26, S-(1,3-Dioxo-2,3,4,5-tetrahydrocyclopenta[c]pyrrol-3a(1H)-yl)ethanethioate]
other
  melting point: 170 to 172 °C
[1]; Mus musculus, RAW264.7
  IC50: 20.5 µM
[1]
  Selectivity index (A/B): 9
[2]
  IC50 at 24 h: 184 µM

## O=C(Cc1ccccc1)SC12CCC=C1C(=O)NC2=O (stereo not drawn) [Compound 27, S-(1,3-Dioxo-2,3,4,5-tetrahydrocyclopenta[c]pyrrol-3a(1H)-yl) 2-phenylethanethioate]
other
  melting point: 155 to 158 °C
[1]; Mus musculus, RAW264.7
  IC50: 30.6 µM
[1]
  Selectivity index (A/B): 3.042
[2]
  IC50 at 24 h: 93.1 µM

## O=C1NC(=O)C2=C1CCC2SC(=O)c1cccs1 (stereo not drawn) [Compound 29, S-(1,3-Dioxo-1,2,3,4,5,6-hexahydrocyclopenta[c]pyrrol-4-yl) thiophene-2-carbothioate]
other
  melting point: 138 to 139 °C
[1]; Mus musculus, RAW264.7
  IC50: 65 µM
[1]
  Selectivity index (A/B): 0.4108
[2]
  IC50 at 24 h: 26.7 µM

## O=C(S[C@@]12CC[C@H](O)[C@@H]1C(=O)NC2=O)c1ccc(O)cc1 [Nitrosporeusine A]
H1N1 virus
  inhibitory activities against the H1N1 virus: exhibited inhibitory activities

## O=C(S[C@@]12CC[C@@H](O)[C@@H]1C(=O)NC2=O)c1ccc(O)cc1 [Nitrosporeusine B]
H1N1 virus
  inhibitory activities against the H1N1 virus: exhibited inhibitory activities
